In series [1] the test system is K562 cells. The series can be described thus: Flow cytometry of K562 cells with red-AlDeSense. Type of series: cell-based, human. Conditions: 1 μM dye. How it is done:
(§1) For all cell lines, 200,000 cells in a single-cell suspension were transferred into 1.5 mL Eppendorf tubes. Cells were pelleted by centrifugation at 400 g for 5 minutes at room temperature. After removing the supernatant by aspiration, cells were resuspended in 300 μL premixed PBS supplemented with verapamil, probenecid, and novobiocin. […] Samples were immediately stored on ice. Cells were stained with red-AlDeSense or Ctrl-red-AlDeSense (100 μL of 4 μM dye solution; dyes were normalized by fluorescence spectroscopy). Samples were analyzed on a BD LSR II Flow Cytometry Analyzer using a 488 nm laser and a 550 LP and 610/30 filter set. Samples were analyzed every 5 minutes for 15 minutes, with the samples being placed back on ice between data collection. Data were analyzed on FCS Express 6.04.
A general note: Flow cytometry measures light scatter and fluorescence of single cells or particles in a stream.

Series [2] can be described thus: physchem.
Method: (§2) The fluorescence of 1 μM of each compound was measured in 40 mM Britton-Robinson buffer at pH 2-9 in 0.5 pH intervals. Each measurement was performed in triplicate. […] Error bars are ±standard deviation (SD).
Series [3] deals with A549 cells. In words: Flow cytometry of A549 cells with red-AlDeSense. Format: cell-based. As to the method: as §1
Series [4] deals with A549 cells. The series can be described thus: Confocal imaging of A549 cells with red-AlDeSense. Format: cell-based. Conditions: 1 μM dye. How it is done: Nunc™ Lab-Tek™ 8-well Chamber Coverglass (Thermo Fisher) were coated with poly-L-lysine (Trevigen). For cells that were also stained with an antibody, 2,000,000 cells were transferred to an Eppendorf tube. The cells were resuspended in 200 μL of antibody buffer (5% BSA and 1 mg/mL NaN3 in PBS) and treated with 2 μL FITC-labeled anti-CD44 antibody (10 mg/mL, Sino Biological) and left on ice for 20 minutes. In all cases, cells were added at 150,000 cells/well to the coated slides 1 hour prior to imaging. […] Cells were treated with 100 uL red-AlDeSense or Ctrl-red-AlDeSense solution (4 μM dye in imaging buffer; dyes were normalized by fluorescence spectroscopy) and 0.8 μL Hoescht 33342 (5 mg/mL in PBS) for 10 minutes. […] Hoescht 33342 was excited with a 405 nm laser and detected with a 415-502 filter set. FITC was excited with a 488 nm laser and detected with a 502-561 filter set. […] was excited with a 594 nm laser and detected with a 600-735 filter set. […] Images were analyzed using ZEN 3.0 (blue edition) software. Mean fluorescence for the FITC-labeled anti-CD44 antibody was multiplied by the cell diameter to account for its 1-dimensional cell membrane staining, as opposed to 2-dimensional intracellular staining of (Ctrl-)red-AlDeSense.

The target in series [5] is T1, ALDH1A1 (Homo sapiens, UniProt P00352).
T1 construct: made in house
T1 sequence (P00352 1-501): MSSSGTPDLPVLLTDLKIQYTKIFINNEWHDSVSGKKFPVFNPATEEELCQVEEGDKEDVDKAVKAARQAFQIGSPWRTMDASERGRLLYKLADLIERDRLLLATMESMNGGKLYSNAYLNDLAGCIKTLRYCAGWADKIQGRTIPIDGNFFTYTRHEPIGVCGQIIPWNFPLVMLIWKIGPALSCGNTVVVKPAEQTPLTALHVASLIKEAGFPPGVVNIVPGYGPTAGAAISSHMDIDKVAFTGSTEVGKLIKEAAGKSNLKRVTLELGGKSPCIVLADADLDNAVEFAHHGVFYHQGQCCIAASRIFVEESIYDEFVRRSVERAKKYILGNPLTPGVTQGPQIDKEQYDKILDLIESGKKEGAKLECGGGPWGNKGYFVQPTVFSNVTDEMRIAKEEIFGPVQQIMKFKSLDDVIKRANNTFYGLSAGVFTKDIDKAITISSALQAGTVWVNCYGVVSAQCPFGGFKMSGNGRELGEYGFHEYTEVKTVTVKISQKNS
In words: ALDH1A1 kinetics. Format: biochemical. As to the method: Solutions were prepared of 2.0 mM NAD+ and 0.1-2.5 μM AlDeSense or red-AlDeSense in 50 mM triethanolamine solution (pH 7.4). For every concentration, 1 unit of enzyme (as defined and determined in ALDH Isoform Selectivity) was added. Fluorescence was monitored for 30 seconds to determine V0. AlDeSense was excited at 490 nm and monitored at 510 nm. Red-AlDeSense was excited at 590 nm and monitored at 610 nm. Each condition was performed in triplicate. Protein concentration was determined using the Pierce™ BCA Protein Assay Kit. Data was analyzed using Microsoft Excel.

A short description of series [6]: pKa determination (pH profile of fluorescence). Conditions: 40 mM Britton-Robinson buffer.
Method: as §2
A short description of series [7]: Log D7.4. Format: physicochemical. The conditions noted are these: pH 7.4.

The structures appear in SMILES notation.

Broadly, the pKa is the pH at which an ionisable group is half protonated. A lower pKa goes with a stronger acid or weaker base. Regarding `Cc1cc(C=O)c(F)c(F)c1C1=C2C=CC(=O)C=C2[Si](C)(C)c2cc(O)ccc21`, the “K562 cells with high ALDH1A1 activity” value in series [1] is 39.0±8.3%. The molecule also had a pKa in series [2] of 6.68. The “extent of red-AlDeSense activation with DEAB” value in series [3] (A549 cells, plus 20 μM DEAB) stood at 67.8±3.4%. The “A549 cells displaying high ALDH1A1 activity” value in series [3] (flow cytometry, 1 μM dye) is on record as 78.1±0.3%. Also, the “A549 cells with high ALDH1A1 activity by confocal microscopy” value in series [4] is listed as 77.6%. Further, the “higher catalytic efficiency (kcat/Km) versus AlDeSense” value in series [5] was 2.3 fold.

One may read the logD as lipophilicity at a set pH, counting ionised and neutral species. Low values mean a more hydrophilic compound, high ones a more lipophilic compound. In series [6], `Cc1cc(C=O)ccc1-c1c2cc(F)c(=O)cc-2oc2cc(O)c(F)cc12` [AlDeSense] showed a pKa of 4.81. In addition, in series [7], the logD was 0.88.

These data come from patent US11407725B2 (The Board of Trustees of the University of Illinois, priority 2018, dated 2022).
